Experimental data reported in patent US6800775B1, “Metal complexes of tripodal ligands” (Ciba Specialty Chemicals Corporation, priority 1999, dated 2004).

Legend:
[1] = DTI (dye transfer inhibition) test, white cotton in wash liquor with dissolved test dye; conditions: complex 20 μmol/l wash liquor, 8.6 mmol/l H2O2, 40° C., 30 min; for DTI effect a(%) Dye 1: Direct Brown 172 10 mg/l of the 250% formulation; for DTI effect a(%) Dye 2: Reactive Blue 238 6 mg/l of the 100% formulation
Method: The catalysts were tested for DTI activity. The DTI (dye transfer inhibition) effect a is defined as the following percentage:
a=([Y(E)−Y(A)]/[Y(W)−Y(A)])*100
where Y(W), Y(A) and Y(E) are the CIE lightnesses of the white material, of the material treated without added catalyst and of the material treated with added catalyst, in that order. a=0 characterizes a product of nil utility, the inclusion of which in the wash liquor does nothing to impede dye transfer. a=100%, by contrast, defines a perfect catalyst, which completely suppresses the tainting of the white material.
The test data are determined using the following testing system: 7.5 g of white cotton are treated in 80 ml of wash liquor. This liquor contains the standard detergent ECE phosphate-free (456 IEC) EMPA, Switzerland, in a concentration of 7.5g/l, 8.6 mmol/l H2O2, and a solution of the test dye. The washing process is carried out in a pot in a LINITEST apparatus at 40° C. for 30 min. Commercially available Direct Brown 172 (dye 1) at 10 mg/l of the 250% formulation or Reactive Blue 238 (dye 2) at 6 mg/l of the 100% formulation were used as test dyes. The reflectants spectra of the samples were measured with a SPECTRAFLASH 2000 and transformed into D65/10 lightnesses by the CIE standard procedure.
The manganese complexes are synthesized either as described in Example 13 or in situ by adding the corresponding manganese(III) salt in ethanolic solution. The complexes are always used at 20 μmol/l wash liquor. It is evident from the table that the recited catalysts are very effective DTI catalysts. […]

[2] = Bleach test, tea stain on cotton fabric; conditions: 100 μmol/l ligand; 8.6 mmol/l hydrogen peroxide; 40° C., 30 minutes; H2O2 only gives 18
Method: The bleach tests are carried out as follows: 7.5 g of white cotton fabric and 2.5 g of a tea stain on cotton fabric are treated in 80 ml of wash liquor. This liquor contains the standard laundry detergent ECE phosphate-free (456 IEC) EMPA, Switzerland in a concentration of 7.5 g/l, hydrogen peroxides in a concentration of 8.6 mmol/l and optionally 100 μmol/l of one of the ligands according to the invention. The washing process takes place in a steel pot in a LINITEST apparatus at 40° C. for 30 minutes. The bleaching results are evaluated using the increase in lightness DY (lightness difference as per CIE) of the stain due to the treatment.

| Structure (SMILES) | DTI effect a(%) Dye 1 [1] [%] | DTI effect a(%) Dye 2 [1] [%] | DY with H2O2 and ligand (increase in lightness of the stain) [2] |
| --- | --- | --- | --- |
| C[N+](C)(C)c1ccc(O)c(C=NCCN(CCN=Cc2cc([N+](C)(C)C)ccc2O)CC/N=C/c2cc([N+](C)(C)C)ccc2O)c1.[Br-].[Br-].[Br-] [Example 11, N,N′,N″-Tris[5-trimethylammoniosalicylideneaminoethyl]amine tribromide] | 86 | 94 | – |
| CN(C)c1ccc(/C=N\CCN(CC/N=C/c2ccc(N(C)C)cc2O)CC/N=C/c2ccc(N(C)C)cc2O)c(O)c1 [Example 3, N,N′,N″-Tris[4-N-dimethylaminosalicylideneaminoethyl]amine] | 85 | 80 | 22 |
| Cc1ccc(C=NCCN(CCN=Cc2ccc(C)cc2O)CC/N=C/c2ccc(C)cc2O)c(O)c1 [Example 9, N,N′,N″-Tris[4-methylsalicylideneaminoethyl]amine] | 87 | 94 | – |
| O=S(=O)([O-])c1ccc(O)c(C=NCCN(CCN=Cc2cc(S(=O)(=O)[O-])ccc2O)CC/N=C/c2cc(S(=O)(=O)[O-])ccc2O)c1.[Na+].[Na+].[Na+] [Example 12, N,N′,N″-Tris[5-sulfonatosalicylideneaminoethyl]amine, trisodium salt] | 80 | 99 | – |
| COc1ccc(/C=N\CCN(CC/N=C/c2ccc(OC)cc2O)CC/N=C/c2ccc(OC)cc2O)c(O)c1 [Example 4, N,N′,N″-Tris[4-methoxysalicylideneaminoethyl]amine] | 83 | 67 | – |
| CC(C)N(C)c1ccc(C=NCCN(CCN=Cc2ccc(N(C)C(C)C)cc2O)CC/N=C/c2ccc(N(C)C(C)C)cc2O)c(O)c1 [Example 7, N,N′,N″-Tris[(4-N-methyl-N-isopropylamino)salicylideneaminoethyl]amine] | 84 | 83 | 21 |
| CCN(C)c1ccc(C=NCCN(CCN=Cc2ccc(N(C)CC)cc2O)CC/N=C/c2ccc(N(C)CC)cc2O)c(O)c1 [Example 8, N,N′,N″-Tris[(4-N-methyl-N-ethylamino)salicylideneaminoethyl]amine] | 85 | 81 | 22 |
| CCN(CC)c1ccc(C=NCCN(CCN=Cc2ccc(N(CC)CC)cc2O)CC/N=C/c2ccc(N(CC)CC)cc2O)c(O)c1 [Example 2, N,N′,N″-Tris[4-N-diethylaminosalicylideneaminoethyl]amine] | 78 | 73 | 21 |
| Oc1ccc(/C=N\CCN(CC/N=C/c2ccc(O)cc2O)CC/N=C/c2ccc(O)cc2O)c(O)c1 [Example 5, N,N′,N″-Tris[4-hydroxysalicylideneaminoethyl]amine] | 78 | 27 | – |
| Oc1ccccc1/C=N\CCN(CC/N=C/c1ccccc1O)CC/N=C/c1ccccc1O [Example 1, N,N′,N″-Tris[salicylideneaminoethyl]amine] | 91 | 96 | – |
| C[N+](C)(C)c1ccc(C=NCCN(CCN=Cc2ccc([N+](C)(C)C)cc2O)CC/N=C/c2ccc([N+](C)(C)C)cc2O)c(O)c1.[Br-].[Br-].[Br-] [Example 10, N,N′, N″-Tris[4-trimethylammoniosalicylideneaminoethyl]amine tribromide] | 90 | 96 | – |
| O=[N+]([O-])c1ccc(O)c(C=NCCN(CCN=Cc2cc([N+](=O)[O-])ccc2O)CC/N=C/c2cc([N+](=O)[O-])ccc2O)c1 [Example 6, N,N′, N″-Tris[5-nitrosalicylideneaminoethyl]amine] | 70 | 80 | – |
